Data set [1] addresses T1, Human Neuropeptide Y2 Receptor (Homo sapiens, UniProt P49146).
T1 construct: purchased CHEMICON HTS066M
T1 sequence (P49146 1-381): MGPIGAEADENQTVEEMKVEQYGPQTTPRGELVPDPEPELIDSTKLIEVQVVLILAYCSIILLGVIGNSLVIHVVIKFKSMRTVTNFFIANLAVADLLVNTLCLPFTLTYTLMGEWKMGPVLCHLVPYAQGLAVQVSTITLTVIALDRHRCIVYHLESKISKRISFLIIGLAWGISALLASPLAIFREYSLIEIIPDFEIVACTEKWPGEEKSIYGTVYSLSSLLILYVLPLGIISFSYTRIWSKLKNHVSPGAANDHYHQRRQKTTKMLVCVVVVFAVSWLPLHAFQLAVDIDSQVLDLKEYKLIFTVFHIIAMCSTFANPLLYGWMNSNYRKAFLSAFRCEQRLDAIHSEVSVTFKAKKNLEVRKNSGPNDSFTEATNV
Description: Radioligand binding competition assay (RLB). To be noted: Table 3, 125I-PYY(1-36) competition; read-out: Ki. Put shortly: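 Peptides were serially diluted from 1 mM DMSO stocks and competed for radioligand binding to receptor membranes (0.5 μg/well) over 2 h at room temperature, pH 7.4 HEPES buffer. Bound radioactivity on filters was counted by scintillation, and IC50 was derived by nonlinear regression.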

Data set [2] deals with T2, human NPY1 receptor (hY1R) (Homo sapiens, UniProt P25929).
T2 construct: expressed in transfected cells; host or cells: CHO-K1
T2 sequence (P25929 1-384): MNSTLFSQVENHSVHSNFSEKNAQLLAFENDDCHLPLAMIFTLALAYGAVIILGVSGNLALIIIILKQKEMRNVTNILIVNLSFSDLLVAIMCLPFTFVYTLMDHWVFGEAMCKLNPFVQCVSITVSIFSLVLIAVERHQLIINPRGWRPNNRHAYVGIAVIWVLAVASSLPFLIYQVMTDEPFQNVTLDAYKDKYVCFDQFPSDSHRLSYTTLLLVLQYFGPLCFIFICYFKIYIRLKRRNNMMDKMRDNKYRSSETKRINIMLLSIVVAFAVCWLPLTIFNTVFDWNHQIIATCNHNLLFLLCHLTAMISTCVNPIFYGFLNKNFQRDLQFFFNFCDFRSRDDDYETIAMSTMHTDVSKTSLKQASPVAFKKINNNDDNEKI
Description: HTRF cAMP Gi assay, hY1R. Format: cell-based. To be noted: CHO-K1 cells.

Data set [3] has as its target T3, human NPY4 receptor (hY4R) (Homo sapiens, UniProt P50391).
T3 construct: expressed in transfected cells; host or cells: CHO-K1
In words: HTRF cAMP Gi assay, hY4R. Format: cell-based. To be noted: CHO-K1 cells.

A short description of data set [4]: Solubility determination. To be noted: for Sol6: pH 6; for Sol7: pH 7. In a few lines: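 First, TFA-salt peptide was added to 0.1 M sodium diphosphate (pH 6.4 or 7.0) to 10 mg/ml and shaken 2 h at room temperature. Next, insoluble material was filtered off. Finally, filtrate and control, each 1 mg/ml in 50% acetonitrile, were compared by reversed-phase chromatography.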

Data set [5] relates to NMRI mice. Description: Effect on acute food intake in normal NMRI mice. Format: in vivo. As to conditions: 5 nmol/kg subcutaneously once. How it is done: Male NMRI mice were obtained from Charles River (Charles River, Research Models & Services Germany GmbH) or from JanVier (JanVier Labs, France) at 5 weeks of age. […] Room temperature was controlled to 21° C.±1° C., with 60%±20% humidity.
Animals were transferred 5-7 days before the start of the study to a real-time food intake monitoring system, HM-2 system (MBRose, Denmark), to allow acclimatization to experimental conditions. As the animals were uniquely identified with microchips, each individual animal was identified by its microchip upon entry and exit from the food channel. Randomization of the mice for each study group (n=7-8) was based on body weight measured the day before the start of the study. A vehicle-treated (50 mM phosphate buffer pH7 with 5% Mannitol) group was included in each experiment. Six hours before the start of the night phase animals were fasted. One hour before the dark phase animals were dosed once subcutaneously (5 nmol/kg) with test peptide. […] The food intake of the treated groups was normalized (in %) to the average food intake of the group receiving vehicle (Table 7). Statistical significance was evaluated using One-way analysis of variance with Turkey's multiple comparison test. P<0.05 was considered statistically significant.

The target of data set [6] is T1, Human Neuropeptide Y2 Receptor. Description: Activity (RLB binding) after incubation in solutions at different pH values. As to conditions: apparent Ki of filtrate after incubation at pH8.1-8.2, assumed 10 mg/ml; read-out: RLB 8 (pH8.1-8.2). On the procedure:
The filtration RLB assay was carried out in 96-well plates in a final volume of 100 μl per well. Freeze-dried test peptides were dissolved in 100% dimethyl sulfoxide (DMSO) to stock solutions of 1 mM and serial dilutions were performed in assay buffer (50 mM HEPES, 5 mM MgCl2, 1 mM CaCl2, pH 7.4) containing 0.2% ovalbumin. […] Next, 80 μL membranes (HTS066M, ChemiSCREEN™ Human Neuropeptide Y2 Receptor Membrane Preparation, CHEMICON) were added to each well to give a final protein concentration of 0.5 μg/well. The plates were sealed and incubated at room temperature for 2 hours in a plate shaker set at 400 rpm. The incubation was stopped by vacuum filtration onto 0.5% polyethylene amine (PE) presoaked GF/C filters using a 96-well FilterMate™ harvester (Perkin Elmer) followed by four washes with 300 μl/well ice-cold wash buffer (50 mM HEPES, 500 mM NaCl, pH7.4). Filter plates were then dried for 60 min at room temperature and the bottom of the plates was sealed with backing tape UniFilter-96. Finally, 50 μl/well scintillation counter cocktail (Microscint20, Packard) was added and the radioactivity was counted in the Packard TopCount NXT scintillation counter. IC50 values (the half maximal inhibitory concentration of the agonist) were calculated by nonlinear regression analysis of sigmoidal dose-response curves.
The peptide was (partially) dissolved by shaking the filter unit horizontally at approx. 400 rpm for 2 hours at room temperature. The sample was filtered to remove any insoluble particles.

The target of data set [7] is T4, human NPY5 receptor (hY5R) (Homo sapiens, UniProt Q15761).
T4 sequence (Q15761 1-445): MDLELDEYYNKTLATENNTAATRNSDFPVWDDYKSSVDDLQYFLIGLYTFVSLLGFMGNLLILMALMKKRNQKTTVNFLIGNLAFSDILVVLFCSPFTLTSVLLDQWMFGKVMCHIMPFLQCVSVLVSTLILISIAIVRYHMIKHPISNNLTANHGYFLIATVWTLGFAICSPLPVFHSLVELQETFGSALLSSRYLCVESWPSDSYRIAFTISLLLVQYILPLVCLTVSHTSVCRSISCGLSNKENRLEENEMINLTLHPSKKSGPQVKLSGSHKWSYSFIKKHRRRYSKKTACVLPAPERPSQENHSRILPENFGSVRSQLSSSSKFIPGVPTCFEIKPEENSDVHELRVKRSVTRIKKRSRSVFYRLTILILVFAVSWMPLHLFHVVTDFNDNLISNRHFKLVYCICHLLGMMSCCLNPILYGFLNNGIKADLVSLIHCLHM
Description: HTRF cAMP Gi assay, hY5R.

The target in data set [8] is T5, human NPY2 receptor (NPY2R) (human, UniProt P49146).
T5 chain: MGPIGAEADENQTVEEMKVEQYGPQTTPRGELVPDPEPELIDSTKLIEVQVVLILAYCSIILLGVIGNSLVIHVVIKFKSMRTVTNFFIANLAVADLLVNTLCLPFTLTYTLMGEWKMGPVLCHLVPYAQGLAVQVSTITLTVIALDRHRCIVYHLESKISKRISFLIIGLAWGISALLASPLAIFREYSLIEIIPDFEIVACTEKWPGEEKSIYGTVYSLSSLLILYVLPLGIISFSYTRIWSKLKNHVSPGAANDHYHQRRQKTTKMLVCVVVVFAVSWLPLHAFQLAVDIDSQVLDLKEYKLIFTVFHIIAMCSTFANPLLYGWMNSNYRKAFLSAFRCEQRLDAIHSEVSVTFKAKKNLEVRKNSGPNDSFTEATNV
Description: competition.

*1 amine or outer side, *2 acyl side, *3 side chain or, on linkers, in order; H or OH if unused. Side-chain parts run from the residue outwards. The star is where a group is joined. C18 diacid = O=C(O)CCCCCCCCCCCCCCCCC(=O)*; γGlu = O=C(O)[C@H](CCC(=O)[*:2])N[*:1]; Isovaleryl = CC(C)CC(=O)*; Ahx = NCCCCCC(=O)O

T3 sequence (P50391 whole entry): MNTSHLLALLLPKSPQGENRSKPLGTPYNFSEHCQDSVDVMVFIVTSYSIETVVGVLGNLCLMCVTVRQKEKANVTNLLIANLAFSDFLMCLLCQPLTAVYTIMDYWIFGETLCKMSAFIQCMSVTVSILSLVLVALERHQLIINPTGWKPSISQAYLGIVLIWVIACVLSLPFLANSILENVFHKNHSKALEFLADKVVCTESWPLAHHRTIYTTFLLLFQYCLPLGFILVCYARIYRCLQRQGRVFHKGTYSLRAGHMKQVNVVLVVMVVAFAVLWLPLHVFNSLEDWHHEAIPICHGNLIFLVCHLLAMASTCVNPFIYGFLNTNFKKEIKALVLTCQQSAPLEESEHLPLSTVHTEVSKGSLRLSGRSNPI

In the case of `CC[C@H](C)[C@H](NC(=O)[C@H](CCC(=O)O)NC(=O)[C@H](CCC(=O)O)NC(=O)[C@@H]1CCCN1C(=O)[C@@H](NC(=O)[C@H](C)NC(=O)[C@H](CC(=O)O)NC(=O)[C@H](C)NC(=O)[C@H](CCC(=O)O)NC(=O)[C@@H]1CCCN1C(=O)[C@H](CCCCNC(=O)CCCCCNC(=O)CC[C@H](NC(=O)CCCCCCCCCCCCCCCCC(=O)O)C(=O)O)NC(=O)[C@H](CCC(=O)O)NC(=O)[C@@H]1CCCN1C(=O)[C@H](C)NC(=O)CC(C)C)[C@@H](C)O)C(=O)N[C@@H](CCC(N)=O)C(=O)N[C@@H](CCCNC(=N)N)C(=O)N[C@@H](Cc1ccc(O)cc1)C(=O)N[C@@H](Cc1ccc(O)cc1)C(=O)N[C@H](C(=O)N[C@@H](CO)C(=O)N[C@@H](CC(C)C)C(=O)N[C@@H](CCCNC(=N)N)C(=O)N[C@@H](Cc1c[nH]cn1)C(=O)N[C@@H](Cc1ccc(O)cc1)C(=O)N[C@@H](Cc1ccc(O)cc1)C(=O)N[C@@H](CC(N)=O)C(=O)N[C@@H](Cc1c[nH]c2ccccc12)C(=O)N[C@@H](CC(C)C)C(=O)N[C@H](C(=O)N[C@@H](CCCNC(=N)N)C(=O)N[C@@H](CCC(N)=O)C(=O)N[C@@H](CCCNC(=N)N)C(=O)N[C@@H](Cc1ccc(O)cc1)C(N)=O)[C@@H](C)O)C(C)C` [Compound 7, N{alpha-4}-(3-methylbutanoyl)-N{epsilon-7}-(6-[(4S)-4-carboxy-4-(17-carboxyheptadecanamido)butanamido]hexanoyl)[4A,7K,9E,10A,13T,17I,18Q,22V,28Y,30W,31L]-hPYY(4-36)], the Ki in data set [1] is 1.04 nM; in data set [6] it was 3.1 nM. For the same molecule, the EC50 in data set [2], in data set [3] and in data set [7] was more than 5000 nM each time. For the same molecule, the “Sol6” value in data set [4] was determined as 8.9 mg/mL. In addition, the “Sol7” value in data set [4] is 9.2 mg/mL. In data set [5], the “Acute Food Intake 24 h [% vehicle]” value is on record as 38 % vehicle.
For `CC(C)CC(=O)N[C@@H](C)C(=O)N1CCC[C@H]1C(=O)N[C@@H](C)C(=O)N[C@@H](CCCCNC(=O)CCCCCNC(=O)CC[C@H](NC(=O)CCCCCCCCCCCCCCCCC(=O)O)C(=O)O)C(=O)N1CCC[C@H]1C(=O)N[C@@H](CCC(=O)O)C(=O)N[C@@H](CCC(=O)O)C(=O)N[C@@H](CC(=O)O)C(=O)N[C@@H](C)C(=O)N[C@H](C(=O)N1CCC[C@H]1C(=O)N[C@@H](CCC(=O)O)C(=O)N[C@@H](CCC(=O)O)C(=O)N[C@@H](CC(C)C)C(=O)N[C@@H](CCC(N)=O)C(=O)N[C@@H](CCCNC(=N)N)C(=O)N[C@@H](Cc1ccc(O)cc1)C(=O)N[C@@H](Cc1ccc(O)cc1)C(=O)N[C@H](C(=O)N[C@@H](CO)C(=O)N[C@@H](CC(C)C)C(=O)N[C@@H](CCCNC(=N)N)C(=O)N[C@@H](Cc1c[nH]cn1)C(=O)N[C@@H](Cc1ccc(O)cc1)C(=O)N[C@@H](Cc1ccc(O)cc1)C(=O)N[C@@H](CC(N)=O)C(=O)N[C@@H](Cc1c[nH]c2ccccc12)C(=O)N[C@@H](CC(C)C)C(=O)N[C@H](C(=O)N[C@@H](CCCNC(=N)N)C(=O)N[C@@H](CCC(N)=O)C(=O)N[C@@H](CCCNC(=N)N)C(=O)N[C@@H](Cc1ccc(O)cc1)C(N)=O)[C@@H](C)O)C(C)C)[C@@H](C)O` [Compound 26, N{alpha-4}-(3-methylbutanoyl)-N{epsilon-7}-(6-[(4S)-4-carboxy-4-(17-carboxyheptadecanamido)butanamido]hexanoyl)[4A,6A,7K,9E,13T,18Q,22V,28Y,30W,31L]-hPYY(4-36)], the Ki in data set [1] was found to be 5.64 nM. In data set [4], the “Sol6” value is 9.2 mg/mL and the “Sol7” value came to 9.1 mg/mL. Besides, the “Acute Food Intake 24 h [% vehicle]” value in data set [5] is 53 % vehicle. The EC50 in data set [7] is more than 5000 nM.
For the molecule Isovaleryl-APEK([Ahx-γGlu-C18 diacid])PEAEASPEELQRYYVSLRHYYNWLTRQRY-NH2 [Compound 122], the Ki in data set [8] stood at 2.73 nM.

The values above are taken from patent US12391737B2, “Soluble NPY2 receptor agonists” (Boehringer Ingelheim International GmbH, priority 2020, dated 2025).
